The text below walks through data of paper PMC12480552 (Scientific Reports, 2025).

Read-outs that look alike come from different tables or passages of the source.

The nature of one series: in vivo. To be noted: male, rhesus monkey; for Kp / Kp uu: brain. As for the experimental part: Animals were randomized using the GSK Randomization App 2.0, which is an internal software tool that uses the ‘sample’ function in R to randomly shuffle animal IDs, then assigns them to treatment groups to ensure unbiased allocation.
Before each dose, animals were lightly sedated with an intramuscular injection of ketamine (5–10 mg/kg), and a blood sample was drawn. […] NHPs were euthanized by administering an overdose of injected sodium pentobarbital IV (150–200 mg/kg) and confirmed by thoracotomy and exsanguination. Terminal plasma, cerebrospinal fluid, and brain tissue were collected at necropsy. […] The brain was cut into six roughly 1-cm thick coronal segments before snap-freezing by floating on liquid nitrogen. The right hemispheres of the four interior coronal brain segments were cryosectioned and analyzed by matrix-assisted laser desorption/ionization mass spectrometry imaging (MALDI MSI) to quantitatively assess the tissue distribution of the dosed compounds[40]–[43]. After MALDI MSI analysis, tissue sections were stained with hematoxylin and eosin (H&E) for correlation of ion images with underlying tissue histology.
Brain tissue was weighed in polypropylene tubes, then phosphate-buffered saline (PBS) was added to the tissue sample before homogenization (1:4 wt: vol).
The LC-MS/MS system includes an API-6500 triple quadrupole mass spectrometer (Sciex, Framingham, MA) and an ExionLC system (ExionLC Controller, ExionLC AD Column Oven, ExionLC AD Pump, and ExionLC AD Multiplate Sampler; all from Sciex). Data were acquired and processed using Analyst® 1.7.2 software (Sciex). An Acquity UHPLC BEH C18 analytical column (1.7-µm, 2.1 × 50 mm; Waters, Milford, MA) was applied in sample analysis.
First, the brain tissue partition coefficient Kp, brain was calculated using Eq. (1).
Where Css, brain is the mean steady-state total drug concentration in brain tissue, and Css, plasma is the mean steady-state total drug concentration in plasma (both measured by LC-MS/MS). […] Finally, Kp, uu, brain was calculated using Eq. (2).2 [drawing 2]

Series [1] can be described thus: Protein binding by rapid equilibrium dialysis, rhesus macaque brain and plasma. To be noted: rhesus monkey, pH 7.4. From the text:
(§1) The luciferase-transfected human breast cancer cell line (MDA231-BrM2-831) was purchased from Memorial Sloan Kettering Cancer Center (New York, NY). […] Deuterated olaparib (olaparib-d8) was purchased from Alsachim (Illkirch Graffenstaden, France). Cynomolgus macaque brain tissue (lot #CYN252598), rhesus macaque brain tissue (lot #RHS24901), rhesus macaque plasma (lot #RHS24900), CD1 mouse brain tissue (lot #MSE343926), and CD1 mouse plasma (lot #MSE343926) used in the protein-binding assays were obtained from BioIVT (Westbury, NY).
(§2) Brain (diluted 1:4 [5×] in PBS) or plasma (undiluted) were spiked with each test compound and applied to each matrix. Aliquots of each mixture were added to the donor wells of a rapid equilibrium dialysis plate in triplicate, and blank PBS was added to each receiver well, at volumes recommended by the manufacturer. Plates were incubated with shaking at 200 rpm for 4 h at 37 °C. At the end of incubation, samples were collected from each donor and receiver well. Samples were matrix-matched with the addition of an equivalent volume of blank matrix to each receiver sample and blank PBS to each donor sample. Additional samples were collected from each incubation mixture at the beginning (T = 0 min) and end (T = 240 min) of incubation for determination of stability, and matrix-matched with PBS as described above. The resultant samples were extracted by protein precipitation with acetonitrile containing an analytical internal standard, centrifuged, and analyzed by LC-MS/MS.
For orientation: In equilibrium dialysis free small molecules cross a membrane that holds back macromolecules.

Series [2] is described as follows: Protein binding by rapid equilibrium dialysis, CD1 mouse brain and plasma. To be noted: pH 7.4.
From the text: as §1, §2

The test system of a further series is human P-gp. To be noted: MDCKII cells overexpressing human P-gp; cited from earlier work.
The conditions of series [3]: cited from earlier work.
The conditions of series [4]: 43 patients, phase 0 cohort, 200 or 300 mg once daily 4 days, cited from earlier work.
The conditions of series [5]: cited from earlier work. The source holds these as a separate data set.
On the set-up of series [6]: method as in earlier work. To be noted: humans, multiple-dose oral administration; cited from earlier work.

The fraction unbound is the share of the substance not bound to proteins or other matrix. `NC(=O)c1cccc2cn(-c3ccc([C@@H]4CCCNC4)cc3)nc12` [Niraparib] registered a Kp in “in vivo” (Mean Kp) of 3.18. The same molecule had a Kp uu in “in vivo” (Mean Kp) of 0.313. For the same molecule, the fraction unbound at 4 h, 1 µM in series [1] (plasma (undiluted)) stood at 0.366; in series [2] (brain homogenate (diluted 1:4 [5×] in PBS)), 0.0295; in series [2] (cynomolgus monkey, brain homogenate (diluted 1:4 [5×] in PBS)), 0.0361; in series [2] (plasma (undiluted)) it was 0.22. In addition, the P-gp substrate status entry in the series with human P-gp is given as “substrates for P-gp”. Moreover, the “Kp, brain” value in series [3] (P-gp knockout mice) is on record as 1.20; in series [3] (P-gp/BCRP knockout mice), 1.46; in series [3] (wild-type mice), 0.20. Also, the “Kp, tumor” value in series [4] (gadolinium-enhanced tissue) is recorded as 7.5; in series [4] (nonenhanced tissue) it was 4.2. For the same molecule, the cell membrane permeability result in series [5] was “high”.
Broadly, the Tmax is the time from dosing to the highest level. For the molecule `O=C(c1cc(Cc2n[nH]c(=O)c3ccccc23)ccc1F)N1CCN(C(=O)C2CC2)CC1` [Olaparib], in the series “in vivo”, the “Kp, brain” value turned out to be 0.044. The “Kp, uu, brain” value in “in vivo” stood at 0.028. Moreover, the Kp in the series “in vivo” (Kp) was 0.037; in “in vivo” (Mean Kp) it was 0.041. The Kp uu came to 0.024 in the series “in vivo” (Kp) and 0.026 in “in vivo” (Mean Kp). Further, the fraction unbound at 4 h, 1 µM in series [1] (brain homogenate) turned out to be 0.194; in series [1] (plasma), 0.301; in series [2] (CD1, mouse, brain homogenate) it was 0.23. This molecule also showed a Fu in series [2] (CD1, mouse, plasma, 4 h, 1 µM) of 35.2%. Besides, in the series on human P-gp, the P-gp substrate status result was “substrates for P-gp”. The Tmax in series [6] is 1 to 3 h.
